Results: US4963566A, “Benzimidazolyl-sulfinyl-tetrahydroquinolines” (Otsuka Pharmaceutical Co., Ltd., priority 1986, dated 1990)

Target: T1, H^+ +K^+ ATPase (Sus scrofa, UniProt P19156)
T1 construct: prepared from porcine stomach; from tissue; host or cells: porcine stomach
Assay: H+ +K+ ATPase inhibition (inorganic phosphoric acid release)
Format: biochemical
Details: enzyme prepared from porcine stomach; 30 min with compound at room temperature, pH 6.1; then 30 min at 37° C., pH 7.4, 20 mM KCl
Procedure: H^+ +K^+ ATPase (adenosine triphosphatase) (amount of protein: 10 μg) prepared from porcine stomach was added to a Pipes-TRIS [i.e. 2-amino-2-(hydroxymethyl)-1,3-propanediol] buffer solution (pH 6.1) containing 2 mM of piperazine N,N'-bis(2-ethanesulfonic acid), and the mixture was let stand at room temperature. A test compound was dissolved in dimethyl formamide, and the mixture was added to said H^+ +K^+ ATPase buffer solution so that the final concentration should be 1% and let stand for reaction for 30 minutes at room temperature. Then a 75 mM Pipes-TRIS buffer (1 ml, pH 7.4) (containing 4 mM MgCl2, 4 mM Na2 ATP, and 20 mM KCl) and a 75 mM Pipes-TRIS buffer (1 ml, pH 7.4) (containing 4 mM MgCl2, and 4 mM Na2 ATP) were added to the solution individually to make two kinds of samples and these samples were presented for reaction for 30 minutes at 37° C. 40% Trichloroacetic acid (0.3 ml) was added to each sample to stop the reaction. The solution were subjected to centrifugal separation (3000 rpm) for 10 minutes, and the supernatant was taken off, then the formed inorganic phosphoric acid was measured by Fiske and Subbarow's method [J. Biol. Chem. vol. 66, 375 (1925)]. The value of deducting the amount of inorganic phosphoric acid taken from the Pipes-Tris buffer not containing 20 mM KCl from that taken from the Pipes-Tris buffer containing 20 mM KCl was calculated in terms of unit protein and unit hour to be defined as an activity index of enzyme. Inhibition level (%) in doses of administration was estimated by control values and activity indices of enzyme, and from the obtained inhibition level (%), IC50 (dose of administration of compounds to inhibit in 50%) was obtained.

T1 sequence (P19156 2-1034 limits assumed): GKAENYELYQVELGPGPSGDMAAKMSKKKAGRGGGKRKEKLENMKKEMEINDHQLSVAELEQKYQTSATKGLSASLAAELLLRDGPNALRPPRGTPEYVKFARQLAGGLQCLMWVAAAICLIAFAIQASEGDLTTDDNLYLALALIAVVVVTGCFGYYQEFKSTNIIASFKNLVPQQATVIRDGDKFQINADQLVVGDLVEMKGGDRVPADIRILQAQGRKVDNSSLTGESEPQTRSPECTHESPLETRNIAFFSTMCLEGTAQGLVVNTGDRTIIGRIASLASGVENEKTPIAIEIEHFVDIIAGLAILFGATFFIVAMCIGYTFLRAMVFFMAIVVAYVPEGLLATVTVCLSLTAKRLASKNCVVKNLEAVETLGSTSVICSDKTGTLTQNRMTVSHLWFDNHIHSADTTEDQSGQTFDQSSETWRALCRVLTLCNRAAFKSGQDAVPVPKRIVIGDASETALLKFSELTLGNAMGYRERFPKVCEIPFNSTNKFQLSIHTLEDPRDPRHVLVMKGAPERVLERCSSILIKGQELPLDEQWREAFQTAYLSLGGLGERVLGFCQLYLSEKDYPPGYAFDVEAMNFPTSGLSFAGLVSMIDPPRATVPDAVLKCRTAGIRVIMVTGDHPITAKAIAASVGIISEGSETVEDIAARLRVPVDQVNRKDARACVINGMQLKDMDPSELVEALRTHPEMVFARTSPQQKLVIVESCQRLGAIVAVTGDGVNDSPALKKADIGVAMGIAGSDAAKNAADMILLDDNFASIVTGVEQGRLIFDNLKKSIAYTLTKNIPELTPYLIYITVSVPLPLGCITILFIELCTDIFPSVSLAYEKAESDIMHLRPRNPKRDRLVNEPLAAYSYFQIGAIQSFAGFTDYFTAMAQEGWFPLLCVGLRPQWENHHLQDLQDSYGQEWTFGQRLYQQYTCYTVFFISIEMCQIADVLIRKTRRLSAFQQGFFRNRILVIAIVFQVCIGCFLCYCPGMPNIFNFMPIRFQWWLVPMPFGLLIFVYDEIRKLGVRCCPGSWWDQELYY
T1 sequence (P18434 whole entry partner): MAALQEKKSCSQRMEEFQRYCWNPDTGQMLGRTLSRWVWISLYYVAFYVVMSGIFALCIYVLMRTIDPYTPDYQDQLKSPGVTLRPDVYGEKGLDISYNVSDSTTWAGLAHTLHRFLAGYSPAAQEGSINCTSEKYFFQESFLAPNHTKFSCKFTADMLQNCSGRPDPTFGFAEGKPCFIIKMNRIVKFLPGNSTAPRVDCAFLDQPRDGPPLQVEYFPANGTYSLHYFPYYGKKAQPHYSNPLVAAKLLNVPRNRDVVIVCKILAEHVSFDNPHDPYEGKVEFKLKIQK

Compound | IC50
CN1CCC(C)(O)c2cccc(C[S+]([O-])c3nc4ccccc4[nH]3)c21 (centres unmarked) [Test compound No. 45, 1,4-dimethyl-8-(2-benzimidazolyl)sulfinylmethyl-4-hydroxy-1,2,3,4-tetrahydroquinoline] | 2200 nM
C=CCN(C)C1CCNc2c(C[S+]([O-])c3nc4cc(F)c(OC)cc4[nH]3)cccc21 (centres unmarked) [Test compound No. 71, 8-(5-fluoro-6-methoxy-2-benzimidazolyl)sulfinylmethyl-4-(N-allyl-N-methyl)amino-1,2,3,4-tetrahydroquinoline] | 5700 nM
CN1CCCc2cccc(C[S+]([O-])c3nc4ccc(F)cc4[nH]3)c21 (centres unmarked) [Test compound No. 15, 1-methyl-8-(5-fluoro-2-benzimidazolyl)sulfinylmethyl-1,2,3,4-tetrahydroquinoline] | 530 nM
CC1=CCN(C)c2c(C[S+]([O-])c3nc4ccc(C)cc4[nH]3)cccc21 (centres unmarked) [Test compound No. 39, 1,4-dimethyl-8-(5-methyl-2-benzimidazolyl)sulfinylmethyl-1,2-dihydroquinoline] | 130 nM
CCN1CCCc2cccc(C[S+]([O-])c3nc4cc(C)c(C)cc4[nH]3)c21 (centres unmarked) [Test compound No. 13, 1-ethyl-8-(5,6-dimethyl-2-benzimidazolyl)sulfinylmethyl-1,2,3,4-tetrahydroquinoline] | 170 nM
CCN1CCCc2cccc(C[S+]([O-])c3nc4ccc(C(C)=O)cc4[nH]3)c21 (centres unmarked) [Test compound No. 9, 1-ethyl-8-(5-acetyl-2-benzimidazolyl)sulfinylmethyl-1,2,3,4-tetrahydroquinoline] | 2200 nM
1,4-dimethyl-8-(5-fluoro-6-methyl-2-benzimidazolyl)sulfinylmethyl-1,2,3,4- tetrahydroquinoline [Test compound No. 30] | 610 nM
CCOc1cc2[nH]c([S+]([O-])Cc3cccc4c3N(CC)CCC4)nc2cc1F (centres unmarked) [Test compound No. 7, 1-ethyl-8-(5-ethoxy-6-fluoro-2-benzimidazolyl)sulfinylmethyl-1,2,3,4-tetrahydroquinoline] | 1600 nM
CCN1CCCc2cccc(C[S+]([O-])c3nc4ccc(Cl)cc4[nH]3)c21 (centres unmarked) [Test compound No. 8, 1-ethyl-8-(5-chloro-2-benzimidazolyl)sulfinylmethyl-1,2,3,4-tetrahydroquinoline] | 220 nM
C=CCN1CCCc2cccc(C[S+]([O-])c3nc4ccc(C)cc4[nH]3)c21 (centres unmarked) [Test compound No. 33, 1-allyl-8-(5-methyl-2-benzimidazolyl)sulfinylmethyl-1,2,3,4-tetrahydroquinoline] | 580 nM
CCN1CCCc2cc(C)cc(C[S+]([O-])c3nc4ccccc4[nH]3)c21 (centres unmarked) [Test compound No. 32, 1-ethyl-6-methyl-8-(2-benzimidazolyl)sulfinylmethyl-1,2,3,4-tetrahydroquinoline] | 920 nM
CCN1CCCc2cccc(C[S+]([O-])c3nc4ccccc4[nH]3)c21 (centres unmarked) [Test compound No. 36, 1-ethyl-8-(2-benzimidazolyl)sulfinylmethyl-1,2,3,4-tetrahydroquinoline] | 450 nM
CCN1CCCc2cc(Br)cc(C[S+]([O-])c3nc4ccccc4[nH]3)c21 (centres unmarked) [Test compound No. 31, 1-ethyl-6-bromo-8-(2-benzimidazolyl)sulfinylmethyl-1,2,3,4-tetrahydroquinoline] | 6400 nM
CCN1CCCc2cccc(C[S+]([O-])c3nc4ccc(OC)cc4[nH]3)c21 (centres unmarked) [Test compound No. 3, 1-ethyl-8-(5-methoxy-2-benzimidazolyl)sulfinylmethyl-1,2,3,4-tetrahydroquinoline] | 450 nM
CCN1CC(C(=O)N(C)C)Cc2cccc(C[S+]([O-])c3nc4ccccc4[nH]3)c21 (centres unmarked) [Test compound No. 55, 1-ethyl-8-(2-benzimidazolyl)sulfinylmethyl-3-dimethylcarbamoyl-1,2,3,4-tetrahydroquinoline 1/3-hydrate] | 5100 nM
CCN1CCCc2cccc(C[S+]([O-])c3nc4ccc(F)cc4[nH]3)c21 (centres unmarked) [Test compound No. 4, 1-ethyl-8-(5-fluoro-2-benzimidazolyl)sulfinylmethyl-1,2,3,4-tetrahydroquinoline] | 1000 nM

Compound | IC50
CCN1CCC(=NO)c2cccc(C[S+]([O-])c3nc4ccccc4[nH]3)c21 (centres unmarked) [Test compound No. 50, 1-ethyl-8-(2-benzimidazolyl)sulfinylmethyl-4-hydroxyimino-1,2,3,4-tetrahydroquinoline] | 4700 nM
CN1CCCc2cccc(C[S+]([O-])c3nc4ccccc4[nH]3)c21 (centres unmarked) [Test compound No. 14, 1-methyl-8-(2-benzimidazolyl)sulfinylmethyl-1,2,3,4-tetrahydroquinoline] | 170 nM
C=C1CCN(CC)c2c(C[S+]([O-])c3nc4ccccc4[nH]3)cccc21 (centres unmarked) [Test compound No. 52, 1-ethyl-8-(2-benzimidazolyl)sulfinylmethyl-4-methylene-1,2,3,4-tetrahydroquinoline] | 3900 nM
C=CCN1CCCc2cccc(C[S+]([O-])c3nc4ccc(OC)cc4[nH]3)c21 (centres unmarked) [Test compound No. 22, 1-allyl-8-(5-methoxy-2-benzimidazolyl)sulfinylmethyl-1,2,3,4-tetrahydroquinoline] | 960 nM
CCN1CCCc2cccc(C[S+]([O-])c3nc4cc(F)c(F)cc4[nH]3)c21 (centres unmarked) [Test compound No. 5, 1-ethyl-8-(5,6-difluoro-2-benzimidazolyl)sulfinylmethyl-1,2,3,4-tetrahydroquinoline] | 440 nM
COc1ccc2nc([S+]([O-])Cc3cccc4c3N(C)CC=C4C)[nH]c2c1 (centres unmarked) [Test compound No. 40, 1,4-dimethyl-8-(5-methoxy-2-benzimidazolyl)sulfinylmethyl-1,2-dihydroquinoline] | 520 nM
CCN1CC(C(=O)O)Cc2cccc(C[S+]([O-])c3nc4ccccc4[nH]3)c21 (centres unmarked) [Test compound No. 56, 1-ethyl-8-(2-benzimidazolyl)sulfinylmethyl-3-carboxy-1,2,3,4-tetrahydroquinoline 1/2hydrate] | 1900 nM
C=CCN1CCCc2cccc(C[S+]([O-])c3nc4ccccc4[nH]3)c21 (centres unmarked) [Test compound No. 21, 1-allyl-8-(2-benzimidazolyl)sulfinylmethyl-1,2,3,4-tetrahydroquinoline] | 330 nM
Cc1ccc2nc([S+]([O-])Cc3cccc4c3N(C)CCC4)[nH]c2c1 (centres unmarked) [Test compound No. 17, 1-methyl-8-(5-methyl-2-benzimidazolyl)sulfinylmethyl-1,2,3,4-tetrahydroquinoline] | 530 nM
CCN1CC(C)(C)C(OC)c2cccc(C[S+]([O-])c3nc4ccc(C)cc4[nH]3)c21 (centres unmarked) [Test compound No. 66, 1-ethyl-8-(5-methyl-2-benzimidazolyl)sulfinylmethyl-4-methoxy-3,3-dimethyl-1,2,3,4-tetrahydroquinoline] | 330 nM
CCN1CC(CO)Cc2cccc(C[S+]([O-])c3nc4ccccc4[nH]3)c21 (centres unmarked) [Test compound No. 54, 1-ethyl-8-(2-benzimidazolyl)sulfinylmethyl-3-hydroxymethyl-1,2,3,4-tetrahydroquinoline] | 1200 nM
C#CCN1CCCc2cccc(C[S+]([O-])c3nc4ccccc4[nH]3)c21 (centres unmarked) [Test compound No. 26, 1-propargyl-8-(2-benzimidazolyl)sulfinylmethyl-1,2,3,4-tetrahydroquinoline] | 1600 nM
CN1CCCc2cccc(C[S+]([O-])c3nc4ccc(Cl)cc4[nH]3)c21 (centres unmarked) [Test compound No. 18, 1-methyl-8-(5-chloro-2-benzimidazolyl)sulfinylmethyl-1,2,3,4-tetrahydroquinoline] | 200 nM
CCN1CCC(N(C=O)C2CC2)c2cccc(C[S+]([O-])c3nc4cc(F)c(OC)cc4[nH]3)c21 (centres unmarked) [Test compound No. 65, 1-ethyl-8-(5-fluoro-6-methoxy-2-benzimidazolyl)sulfinylmethyl-4-(N-formyl-N-cyclopropyl)amino-1,2,3,4-tetrahydroquinoline] | 2800 nM
CCN1CCCc2cccc(C[S+]([O-])c3nc4ccc(C)cc4[nH]3)c21 (centres unmarked) [Test compound No. 2, 1-ethyl-8-(5-methyl-2-benzimidazolyl)sulfinylmethyl-1,2,3,4-tetrahydroquinoline] | 180 nM
C=CCN(Cc1ccc(OC)cc1)C1CCN(CC)c2c(C[S+]([O-])c3nc4cc(F)c(OC)cc4[nH]3)cccc21 (centres unmarked) [Test compound No. 70, 1-ethyl-8-(5-fluoro-6-methoxy-2-benzimidazolyl)sulfinylmethyl-4-[N-allyl-N-(4-methoxybenzyl)]amino1,2,3,4-tetrahydroquinoline] | 3800 nM
